Test results from ChEMBL document CHEMBL1201862, “PubChem BioAssay data set” (2004).
Calls of active or inactive are those of the source.

Tests used:
[1] = TNFa-induced NF-kB reporter signal decrease – HEK293 LMP1 reporter cells, dry powder, set 2, selectivity assay for EBV LMP1 NF-kB inhibitor project, dose response (AID 624369); assay type: functional
Steroidogenic factor 1 = Steroidogenic factor 1 (Homo sapiens, UniProt Q13285); assay: Counterscreen for inverse agonists of the liver receptor homolog-1 (LRH-1; NR5A2): Luminescence-based cell-based high throughput dose response assay to identify inverse agonists of the Steroidogenic Factor 1 Nuclear Receptor (SF1; NR5A1).; assay type: functional
Sequence of Steroidogenic factor 1 (Q13285 whole entry): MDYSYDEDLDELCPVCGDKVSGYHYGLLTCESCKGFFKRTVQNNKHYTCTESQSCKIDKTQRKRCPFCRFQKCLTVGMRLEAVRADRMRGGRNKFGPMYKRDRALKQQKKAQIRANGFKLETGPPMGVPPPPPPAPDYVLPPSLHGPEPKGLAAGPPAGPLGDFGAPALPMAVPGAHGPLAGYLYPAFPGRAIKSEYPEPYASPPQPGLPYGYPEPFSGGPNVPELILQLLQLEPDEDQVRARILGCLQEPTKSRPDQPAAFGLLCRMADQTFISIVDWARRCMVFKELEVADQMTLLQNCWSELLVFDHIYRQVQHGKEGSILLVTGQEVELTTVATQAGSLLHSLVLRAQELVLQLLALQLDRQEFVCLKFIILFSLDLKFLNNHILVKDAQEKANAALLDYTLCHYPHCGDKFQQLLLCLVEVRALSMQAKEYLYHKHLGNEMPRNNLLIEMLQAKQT

[2] = target: Nuclear receptor subfamily 5 group A member 2 (Homo sapiens, UniProt O00482); assay type: functional, cell-based;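 also: HEK293T cells transfected with LRH-1 and a StAR promoter luciferase reporter; potency for inhibitors that lower LRH-1 driven reporter light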
Sequence of Nuclear receptor subfamily 5 group A member 2 (O00482 whole entry): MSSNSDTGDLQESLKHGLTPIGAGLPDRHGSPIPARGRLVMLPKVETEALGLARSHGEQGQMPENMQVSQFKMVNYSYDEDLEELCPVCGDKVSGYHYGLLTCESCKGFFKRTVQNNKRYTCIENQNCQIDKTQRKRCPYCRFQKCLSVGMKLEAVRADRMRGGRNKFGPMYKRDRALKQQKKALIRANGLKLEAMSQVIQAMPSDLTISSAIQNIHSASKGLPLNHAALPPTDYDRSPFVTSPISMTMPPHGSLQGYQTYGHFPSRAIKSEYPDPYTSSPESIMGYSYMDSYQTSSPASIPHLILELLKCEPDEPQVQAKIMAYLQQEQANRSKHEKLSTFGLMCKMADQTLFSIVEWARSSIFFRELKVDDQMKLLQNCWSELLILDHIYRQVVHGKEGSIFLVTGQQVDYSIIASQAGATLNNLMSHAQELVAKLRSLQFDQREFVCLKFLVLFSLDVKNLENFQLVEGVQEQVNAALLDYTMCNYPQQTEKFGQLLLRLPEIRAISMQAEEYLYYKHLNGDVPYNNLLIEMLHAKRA

[3] = nonselective StAR promoter luciferase inhibitors – cell-based, luminescence, luciferase reporter, counter-screen for LRH-1 inverse agonist project, dose response (AID 651969); assay type: functional
[4] = target: Matrix metalloproteinase-14 (Homo sapiens, UniProt P50281); assay: SAR confirmation of uHTS hits for a small molecule inhibitors of MT1-MMP activation in a fluorescence assay.; assay type: functional
[5] = M. tuberculosis growth inhibition in 7H9, dose response, 7H9 media, purified and synthesized samples, set 3 (AID 504646); assay type: functional
[6] = target: T1, Sentrin-specific protease 1 (Homo sapiens, UniProt Q9P0U3); assay: SENP1 catalytic domain blockers, concentration series – biochemical, kinetic FRET, dose response (AID 651697); assay type: functional; conditions: read-out: IC50_Mean
T1 sequence (Q9P0U3 whole entry, the tested form may be a part): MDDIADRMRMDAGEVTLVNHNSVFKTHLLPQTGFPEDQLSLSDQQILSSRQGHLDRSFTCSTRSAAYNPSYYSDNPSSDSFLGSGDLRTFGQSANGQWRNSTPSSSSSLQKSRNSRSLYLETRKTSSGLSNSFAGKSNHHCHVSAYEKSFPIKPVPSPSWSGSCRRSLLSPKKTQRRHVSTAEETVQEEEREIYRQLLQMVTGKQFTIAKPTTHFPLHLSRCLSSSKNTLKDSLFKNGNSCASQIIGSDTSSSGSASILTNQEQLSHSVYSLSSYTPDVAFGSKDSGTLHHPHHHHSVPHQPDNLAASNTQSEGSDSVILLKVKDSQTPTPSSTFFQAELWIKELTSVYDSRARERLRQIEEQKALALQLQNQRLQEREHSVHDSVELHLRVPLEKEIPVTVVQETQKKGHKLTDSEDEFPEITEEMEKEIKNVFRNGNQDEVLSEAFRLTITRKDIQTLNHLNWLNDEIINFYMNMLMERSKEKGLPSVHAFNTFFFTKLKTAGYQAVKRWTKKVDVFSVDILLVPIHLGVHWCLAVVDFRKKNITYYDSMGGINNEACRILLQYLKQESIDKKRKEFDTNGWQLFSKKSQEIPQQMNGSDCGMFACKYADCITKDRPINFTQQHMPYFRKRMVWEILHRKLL

[7] = target: T1, Sentrin-specific protease 1; assay: Dose response confirmation of small molecule inhibitors of the catalytic domain of the SUMO protease, SENP1 in a FRET assay.; assay type: functional; conditions: read-out: IC50_Mean
Beta-lactamase [8] = target: T2, Beta-lactamase (Pseudomonas aeruginosa, UniProt Q79MP6); assay: inhibition of IMP-1 beta-lactamase activity – biochemical, epi-absorbance, selectivity assay for VIM-2 inhibitor project, dose response (AID 1920)
T2 sequence (Q79MP6 whole entry): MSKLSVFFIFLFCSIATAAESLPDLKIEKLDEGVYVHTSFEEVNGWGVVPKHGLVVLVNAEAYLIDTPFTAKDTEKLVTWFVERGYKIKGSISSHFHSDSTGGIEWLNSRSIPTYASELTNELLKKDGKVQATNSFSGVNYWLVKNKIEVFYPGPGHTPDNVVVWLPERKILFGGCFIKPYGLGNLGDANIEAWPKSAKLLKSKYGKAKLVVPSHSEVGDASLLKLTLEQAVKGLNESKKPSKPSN

Beta-lactamase [9] = target: Beta-lactamase (Salmonella choleraesuis (strain SC-B67), UniProt Q5J463); assay: Epi-absorbance-based counterscreen for selective VIM-2 inhibitors: dose response biochemical high throughput screening assay to identify inhibitors of TEM-1 serine-beta-lactamase.
Sequence of Beta-lactamase (Salmonella choleraesuis (strain SC-B67), UniProt Q5J463) (Q5J463 whole entry): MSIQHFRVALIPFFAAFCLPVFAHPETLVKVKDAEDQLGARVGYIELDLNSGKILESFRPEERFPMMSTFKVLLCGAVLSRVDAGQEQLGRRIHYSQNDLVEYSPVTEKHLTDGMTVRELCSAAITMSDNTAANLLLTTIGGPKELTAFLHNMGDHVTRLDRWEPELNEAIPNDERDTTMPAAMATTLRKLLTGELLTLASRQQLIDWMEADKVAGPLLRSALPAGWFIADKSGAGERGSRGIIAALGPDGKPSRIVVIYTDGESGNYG

Beta-lactamase [10] = target: T2, Beta-lactamase; assay: […] counterscreen for selective VIM-2 inhibitors: dose response biochemical high throughput screening assay to identify inhibitors of IMP-1 metallo-beta-lactamase.
[11] = target: Palmitoyl-protein thioesterase ABHD10, mitochondrial (Mus musculus, UniProt Q6PE15); assay: Late stage assay provider results from the probe development effort to identify inhibitors of PME-1: fluorescence-based dose response biochemical gel-based competitive Activity-Based Protein Profiling (ABPP) inhibition of ABHD10 Set 1.; assay type: functional
Sequence of Palmitoyl-protein thioesterase ABHD10, mitochondrial (Q6PE15 whole entry): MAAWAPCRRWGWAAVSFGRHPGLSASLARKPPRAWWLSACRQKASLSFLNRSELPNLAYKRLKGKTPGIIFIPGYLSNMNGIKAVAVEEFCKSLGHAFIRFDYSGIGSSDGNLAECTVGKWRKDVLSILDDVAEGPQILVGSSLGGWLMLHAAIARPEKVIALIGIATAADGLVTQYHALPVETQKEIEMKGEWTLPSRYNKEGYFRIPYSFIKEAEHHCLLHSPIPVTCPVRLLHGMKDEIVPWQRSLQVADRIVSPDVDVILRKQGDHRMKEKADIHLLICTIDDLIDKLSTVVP

Albumin = Albumin (Bos taurus, UniProt P02769); assay: Counterscreen for inhibitors of T-cell receptor (TCR)-CD3 interaction: Fluorescence-based biochemical high throughput dose response assay to identify inhibitors of T-cell receptor (TCR)-CD3 interaction using a TAMRA-labeled BSA probe.; assay type: functional
Sequence of Albumin (P02769 whole entry): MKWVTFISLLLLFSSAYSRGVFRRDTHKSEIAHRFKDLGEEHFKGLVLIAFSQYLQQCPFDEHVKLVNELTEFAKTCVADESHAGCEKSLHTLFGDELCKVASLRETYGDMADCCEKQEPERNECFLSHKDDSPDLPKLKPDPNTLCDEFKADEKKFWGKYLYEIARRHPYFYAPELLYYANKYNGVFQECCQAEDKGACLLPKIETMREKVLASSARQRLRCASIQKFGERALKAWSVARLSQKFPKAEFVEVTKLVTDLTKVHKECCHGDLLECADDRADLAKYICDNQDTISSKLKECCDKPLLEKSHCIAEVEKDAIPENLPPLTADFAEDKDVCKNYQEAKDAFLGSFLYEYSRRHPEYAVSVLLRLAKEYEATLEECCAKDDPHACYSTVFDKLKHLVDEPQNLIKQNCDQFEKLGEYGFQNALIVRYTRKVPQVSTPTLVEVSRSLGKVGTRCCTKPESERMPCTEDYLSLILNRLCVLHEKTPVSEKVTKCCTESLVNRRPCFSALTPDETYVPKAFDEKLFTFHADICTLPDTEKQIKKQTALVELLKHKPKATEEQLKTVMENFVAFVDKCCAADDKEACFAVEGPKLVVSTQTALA

[12] = HGIII-sPLA2 enzyme inhibition potency – biochemical, QFRET, IC50, dose response (AID 743457);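 also: green fluorescence rise as the enzyme cleaves BODIPY PC-A2 in liposomes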
Vero = assay: cells; assay type: functional; conditions: Chlorocebus sabaeus
[13] = system: Streptococcus sp. 'group A'; assay: Streptococcus pyogenes SK(-)GAS viability under kanamycin – luminescence, BacTiterGlo, confirmation, counter-screen for streptokinase expression inhibitor project, dose response (AID 1900); assay type: functional, organism-based
Streptococcus = assay: GAS UMAA2166 growth inhibition – luminescence, BacTiterGlo, counter-screen for streptokinase expression inhibitor project, dose response (AID 1915); assay type: functional, organism-based;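 also: potency for reduction of bacterial viability or growth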

Structure (SMILES): O=C(C[C@@H]1C[C@H]2c3cc(NC(=O)c4ccc5c(c4)OCO5)ccc3O[C@H]2[C@H](CO)O1)NC1CCCCC1
- AbsAC35 [1]: 166.85 µM

Structure (SMILES): COc1ccc(NC(=O)CSc2nnc3ccc(-c4cccnc4)nn23)cc1OC
- IC50 (Steroidogenic factor 1): 35.9 µM (inactive)
- IC50 [2]: 35.9 µM (inactive)
- IC50 [3]: 35.9 µM (inactive)

Structure (SMILES): CN1/C(=C/C=C/c2n(C)c3cc([N+](=O)[O-])c([N+](=O)[O-])cc3[n+]2C)C(C)(C)c2ccccc21
- IC50 [4]: 6.88 µM (active)

Structure (SMILES): O=C(NCC1COc2ccccc2O1)C1CCC(CNc2c(N3CCCCC3)c(=O)c2=O)CC1 (configuration not stated)
- IC50 [5]: > 25 µM (active)

Structure (SMILES): N#C/C(=C\c1cc2ccccc2nc1N1CCCCC1)C(N)=O
- IC50 [6]: 53.2 µM (inactive)
- IC50 [7]: 25.8 µM (inactive)

Structure (SMILES): O=Cc1c(O)nc2ccccc2c1NCc1ccc(Cl)cc1
- IC50 (Beta-lactamase [8]): > 59.6 µM (inactive)
- IC50 (Beta-lactamase [9]): > 59.6 µM (inactive)
- IC50 (Beta-lactamase [10]): > 59.6 µM (inactive)

Structure (SMILES): CC[C@@]1(c2ccc(Cl)cc2)C(=O)N(C(=O)OC)N1C(=O)OC
- IC50 [11]: 0.103 µM (active)

Structure (SMILES): O=c1cc(-c2ccc(O)c(O)c2)oc2ccc3ccccc3c12
- IC50 (Albumin): > 94.2 µM (inactive)

Structure (SMILES): COc1ccc(C(=O)NC(=S)NNC(=O)[C@H]2C[C@@H]2c2ccccc2)cc1OC
- IC50 [12]: 65.8 µM (inactive)
- CC50 (Vero): > 25 µM (active)
- EC50 [13]: 1.36 µM (active)
- EC50 (Streptococcus): 3.19 µM (active)
